Reference: patent US6410684B1, “Serine protease inhibitors” (Akzo Nobel N.V., priority 1996, dated 2002)

Biological target: T1, Thrombin (Factor IIa) (Homo sapiens, UniProt P00734)
T1 construct: purchased Centraal Laboratorium voor Bloedtransfusie, Amsterdam, The Netherlands
Assay: Anti-thrombin assay (hydrolysis of chromogenic substrate S-2238)
Format: biochemical
Conditions: chromogenic substrate S-2238, TNP buffer, 37° C., absorbance at 405 nm
Protocol: Thrombin (Factor IIa) is a factor in the coagulation cascade. The anti-thrombin activity of compounds of the present invention was assessed by measuring spectrophotometrically the rate of hydrolysis of the chromogenic substrate s-2238 exterted by thrombin. This assay for anti-thrombin activity in a buffer system was used to assess the IC50-value of a test compound.
Test medium: Tromethamine-NaCl-polyethylene glycol 6000 (TNP) buffer. Reference compound: 12581 (Kabi) Vehicle: TNP buffer. Solubilisation can be assisted with dimethylsulphoxide, methanol, ethanol, acetonitrile or tert-butyl alcohol which are without adverse effects in concentrations up to 2.5% in the final reaction mixture.
Reagents*: 1. Tromethamine-NaCl (TN) buffer. Composition of the buffer: Tromethamine (Tris) 6.057 g (50 mmol), NaCl 5.844 g (100 mmol), water to 1 l. The pH of the solution is adjusted to 7.4 at 37° C. with HCl (10 mmol·l^−1). 2. TNP buffer: Polyethylene glycol 6000 is dissolved in TN buffer to give a concentration of 3 g·l^−1. 3. S-2238 solution: One vial S-2238 (25 mg; Kabi Diagnostica, Sweden) is dissolved in 20 ml TN buffer to give a concentration of 1.25 mg·ml^−1 (2 mmol·l^−1). 4. Thrombin solution: Human thrombin (16 000 nKat·vial^−1; Centraal Laboratorium voor Bloedtransfusie, Amsterdam, The Netherlands) is dissolved in TNP buffer to give a stock solution of 835 nKat·ml^−1. Immediately before use this solution is diluted with TNP buffer to give a concentration of 3.34 nKat·ml^−1.
The test and reference compounds are dissolved in Milli-Q water to give stock concentrations of 10^−2 mol·l^−1. Each concentration is stepwise diluted with the vehicle to give concentrations of 10^−3, 10^−4 and 10^−5 mol·l^−1. The dilutions, including the stock solution, are used in the assay (final concentrations in the reaction mixture: 3·10^−3; 10^−3; 3·10^−4; 10^−4; 3·10^−5; 10^−5; 3·10^−6; and 10^−6 mol·l^−1, respectively).
At room temperature 0.075 ml and 0.025 ml test compound or reference compound solutions or vehicle are alternately pipetted into the wells of a microtiter plate and these solutions are diluted with 0.115 ml and 0.0165 ml TNP buffer, respectively. An aliquot of 0.030 ml S-2238 solution is added to each well and the plate is pre-heated and pre-incubated with shaking in an incubator (Amersham) for 10 min. at 37° C. Following pre-incubation the hydrolysis of S-2238 is started by addition of 0.030 ml thrombin solution to each well. The plate is incubated (with shaking for 30 s) at 37° C. Starting after 1 min of incubation, the absorbance of each sample at 405 nm is measured every 2 min. for a period of 90 min. using a kinetic microtiter plate reader (Twinreader plus, Flow Laboratories).
All data are collected in an IBM personal computer using LOTUS-MEASURE. For each compound concentration (expressed in mol·l^−1 reaction mixture) and for the blank the absorbance is plotted versus the reaction time in min.
Evaluation of responses: For each final concentration the maximum absorbance was calculated from the assay plot. The IC50-value (final concentration, expressed in μmol·l^−1, causing 50% inhibition of the maximum absorbance of the blank) was calculated using the logit transformation analysis according to Hafner et al. (Arzneim.-Forsch./Drug Res. 1977; 27(II): 1871-3).

Structure (SMILES)	IC50 [µM]
NCC#CCC(NC(=O)C1CCCN1C(=O)C(CC1CCCCC1)NCC(=O)O)C(=O)C(=O)N1CCC1 (stereo not drawn) [Example 15]	0.7
NCC#CCC(NC(=O)C1CCCN1C(=O)C1NCCC2CCCCC21)C(=O)c1nccs1 (stereo not drawn) [Example 27]	4.64
NCCCCC(NC(=O)[C@@H]1CCCN1C(=O)[C@@H](Cc1ccc(Cl)cc1)NCC(=O)O)C(=O)c1nccs1 (stereo partly drawn) [Example 30, HOOC—CH2-D-p-Cl-Phe-Pro-Lysininyl-(2-thiazolyl)]	5.1

Next, values leading:

IC50 [µM]	Structure (SMILES)
5	NCC#CCC(NC(=O)C1CCCN1C(=O)C(Cc1ccccc1)NCC(=O)O)C(=O)C(=O)O [Example 11, HOOC—CH2-D-Phe-Pro-LysininylΨ[COCO]—OH]
0.56	NCC#CCC(NC(=O)C1CCCN1C(=O)C(CC1CCCCC1)NCC(=O)O)C(=O)c1nccs1 (stereo not drawn) [Example 1]
4.3	CNC(CC1CCCCC1)C(=O)N1CCCC1C(=O)NC(CC#CCN)C(=O)C(=O)O [Example 3, N-Me-D-Cha-Pro-LysininylΨ[COCO]—OH]
